The source made the active and inactive calls. The rule behind the calls is not given here.
Assays:
[1] = molecular target: T1, Prostaglandin G/H synthase 1 (Homo sapiens, UniProt P23219); test: Inhibition of COX1
[2] = molecular target: T2, Prostaglandin G/H synthase 2 (Homo sapiens, UniProt P35354); test: Inhibition of COX2
T2 sequence (P35354 whole entry): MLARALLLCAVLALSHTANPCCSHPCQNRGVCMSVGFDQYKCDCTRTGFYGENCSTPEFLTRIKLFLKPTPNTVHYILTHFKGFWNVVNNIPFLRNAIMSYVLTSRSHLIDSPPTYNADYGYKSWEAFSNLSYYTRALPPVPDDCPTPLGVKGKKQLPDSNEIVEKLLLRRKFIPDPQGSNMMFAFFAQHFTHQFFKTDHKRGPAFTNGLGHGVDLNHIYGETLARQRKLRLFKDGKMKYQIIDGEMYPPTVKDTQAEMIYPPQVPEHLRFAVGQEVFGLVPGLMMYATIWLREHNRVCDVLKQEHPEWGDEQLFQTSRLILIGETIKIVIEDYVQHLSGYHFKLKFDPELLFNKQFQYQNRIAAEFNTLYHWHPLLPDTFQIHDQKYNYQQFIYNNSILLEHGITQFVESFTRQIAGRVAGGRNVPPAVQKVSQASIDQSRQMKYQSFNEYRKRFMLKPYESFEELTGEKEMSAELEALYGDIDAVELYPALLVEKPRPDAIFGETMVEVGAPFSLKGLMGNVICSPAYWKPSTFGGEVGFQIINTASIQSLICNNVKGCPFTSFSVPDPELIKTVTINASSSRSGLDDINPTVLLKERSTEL

[3] = molecular target: T1, Prostaglandin G/H synthase 1; test: Inhibition of COX1 at 100 uM
Rattus norvegicus [4] = test: Induction of gastric ulcer formation in Sprague-Dawley rat at 30 mg/kg, po after 5 hrs; type: organism-based, Stomach; parameters: dose 30 mg/kg, route oral; conditions: in vivo
[5] = Cmax in Sprague-Dawley rat at 30 mg/kg, po; type: ADME, organism-based; parameters: dose 30 mg/kg, route oral; conditions: in vivo
Mus musculus [6] = test: Acute toxicity in ICR mouse upto 300 mg/kg, po upto 14 days; type: organism-based; parameters: dose 300 mg/kg, route oral; conditions: in vivo, 336 h
Rattus norvegicus [7] = test: Induction of gastric ulcer formation in Sprague-Dawley rat at 30 mg/kg, po administered daily for 1 week; type: organism-based, Stomach; parameters: dose 30 mg/kg, route oral; conditions: in vivo, 168 h
Mus musculus [8] = test: Analgesic activity in ICR mouse assessed as reduction in number of acetic acid-induced writhing at 10 mg/kg, po after 10 mins; type: functional, organism-based; parameters: dose 10 mg/kg
Mus musculus [9] = test: Analgesic activity in ICR mouse assessed as reduction in number of acetic acid-induced writhing at 30 mg/kg, po after 10 mins; type: functional, organism-based; parameters: dose 30 mg/kg
Rattus norvegicus [10] = test: Analgesic activity in Sprague-Dawley rat assessed as reduction in formalin-induced pain at 30 mg/kg, po; type: functional, organism-based; parameters: dose 30 mg/kg
Rattus norvegicus [11] = test: Induction of gastric ulcer formation in Sprague-Dawley rat at 10 mg/kg, po after 5 hrs; type: organism-based, Stomach; parameters: dose 10 mg/kg, route oral; conditions: in vivo

T1 sequence (P23219 whole entry): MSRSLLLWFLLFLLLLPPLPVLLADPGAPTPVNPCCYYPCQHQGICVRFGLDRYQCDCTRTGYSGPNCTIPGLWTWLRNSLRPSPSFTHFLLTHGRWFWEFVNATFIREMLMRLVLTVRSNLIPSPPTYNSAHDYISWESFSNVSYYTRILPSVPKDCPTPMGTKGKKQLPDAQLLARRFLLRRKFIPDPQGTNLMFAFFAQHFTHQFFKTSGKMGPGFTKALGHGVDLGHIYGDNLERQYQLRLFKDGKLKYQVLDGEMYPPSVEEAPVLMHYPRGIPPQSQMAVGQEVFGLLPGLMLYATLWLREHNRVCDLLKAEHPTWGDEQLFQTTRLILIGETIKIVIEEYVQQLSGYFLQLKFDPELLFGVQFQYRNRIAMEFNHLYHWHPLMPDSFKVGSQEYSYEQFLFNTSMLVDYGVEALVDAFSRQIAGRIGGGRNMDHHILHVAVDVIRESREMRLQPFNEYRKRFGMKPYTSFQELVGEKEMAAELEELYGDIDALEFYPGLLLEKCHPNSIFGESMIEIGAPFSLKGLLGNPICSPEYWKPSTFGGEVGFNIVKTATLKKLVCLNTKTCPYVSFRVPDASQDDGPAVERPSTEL

| Compound | IC50 [1] [µM] | IC50 [2] [µM] | inhibition [3] [%] | other results |
| --- | --- | --- | --- | --- |
| Nc1ccc(NC(=O)c2ccccc2C(F)(F)F)cc1 | > 100 | > 100 |  |  |
| Nc1ccc(C(=O)Nc2ccc(C(F)(F)F)cc2)nc1 | > 100 | > 100 |  |  |
| Nc1cccc(NC(=O)c2ccccc2C(F)(F)F)c1 | 94 | > 100 |  |  |
| Nc1ccccc1C(=O)Nc1ccc(Cl)cc1 |  |  | 52 |  |
| Cc1ccc(C(=O)Nc2ccc(N)cc2)cc1 |  |  | 53 |  |
| Nc1cccc(C(=O)Nc2ccc(C(F)(F)F)cc2)c1 | 19 | > 100 | 70 |  |
| Nc1cccc(NC(=O)c2ccc(C(F)(F)F)cc2)c1 | 14 | > 100 | 76 |  |
| Nc1ccccc1C(=O)Nc1ccccc1 |  |  | 64 |  |
| Nc1cccnc1NC(=O)c1ccc(C(F)(F)F)cc1 | > 100 | > 100 |  |  |
| CC(=O)Oc1ccccc1C(=O)O [ASPIRIN] |  |  |  | Activity (Rattus norvegicus [4]): Active |
| Nc1ccc(NC(=O)c2cccc(C(F)(F)F)c2)nc1 | 12 | > 100 |  |  |
| Cc1ccccc1NC(=O)c1ccccc1N |  |  | 53 |  |
| Nc1ccc(NC(=O)c2ccc(C(F)(F)F)cc2)nc1 | 0.8 | 210 |  | Cmax [5]: 12 µM; Activity (Mus musculus [6]): Non-toxic; Activity (Rattus norvegicus [7]): Not Active; Activity (Mus musculus [8]): Active; Activity (Mus musculus [9]): Active; Activity (Rattus norvegicus [10]): Active |
| O=C(Nc1ccc(C(F)(F)F)cc1)c1ccc([N+](=O)[O-])cc1 |  |  | 0 |  |
| Nc1ccccc1NC(=O)c1cccc(C(F)(F)F)c1 | 72 | > 100 |  |  |
| O=C(Nc1ccc(C(F)(F)F)cc1)c1cccc([N+](=O)[O-])c1 |  |  | 13 |  |
| Nc1ccnc(NC(=O)c2ccc(C(F)(F)F)cc2)c1 | > 100 | > 100 |  |  |
| COc1ccc(NC(=O)c2ccc(Cl)cc2)cc1 |  |  | 35 |  |
| Cc1ccc(NC(=O)c2ccc(Cl)cc2)cc1 |  |  | 23 |  |
| Nc1ccc(NC(=O)c2ccc(C(F)(F)F)cc2)cc1 | 29 | > 100 | 63 |  |
| Nc1cccnc1NC(=O)c1cccc(C(F)(F)F)c1 | > 100 | > 100 |  |  |
| Nc1cccc(C(=O)Nc2cccc(C(F)(F)F)c2)c1 | > 100 | > 100 |  |  |
| Nc1ccccc1C(=O)Nc1ccccc1C(F)(F)F | > 100 | > 100 | 32 |  |
| Nc1ccc(NC(=O)c2cccc(C(F)(F)F)c2)cc1 | 62 | > 100 |  |  |

| Compound | IC50 [1] [µM] | IC50 [2] [µM] | inhibition [3] [%] | other results |
| --- | --- | --- | --- | --- |
| Nc1cccc(NC(=O)c2cccc(C(F)(F)F)c2)c1 | 7.2 | > 100 |  |  |
| Nc1cccc(C(=O)Nc2ccccc2C(F)(F)F)c1 | > 100 | > 100 |  |  |
| Nc1ccc(C(=O)Nc2ccccc2)cc1 |  |  | 40 |  |
| Nc1ccccc1NC(=O)c1ccccc1C(F)(F)F | > 100 | > 100 |  |  |
| Nc1ccc(NC(=O)c2ccc(Cl)cc2)cc1 |  |  | 49 |  |
| CCN(C(=O)c1ccccc1N)c1ccc(Cl)cc1 |  |  | 23 |  |
| Nc1ccnc(NC(=O)c2cccc(C(F)(F)F)c2)c1 | > 100 | > 100 |  |  |
| Nc1ccccc1NC(=O)c1ccc(C(F)(F)F)cc1 | 88 | > 100 | 53 |  |
| Cc1cccc(NC(=O)c2ccccc2N)c1 |  |  | 67 |  |
| Nc1ccc(C(=O)Nc2ccc(C(F)(F)F)cn2)cc1 | 10 | > 100 |  |  |
| Nc1ccccc1C(=O)Nc1cccc(C(F)(F)F)c1 | 10 | > 100 | 90 |  |
| Nc1ccc(C(=O)Nc2cccc(C(F)(F)F)c2)cc1 | > 100 | > 100 |  |  |
| Cc1ccc(NC(=O)c2ccccc2N)cc1 |  |  | 57 |  |
| CCN(C(=O)c1ccccc1N)c1ccccc1 |  |  | 5 |  |
| Nc1ccc(NC(=O)c2ccccc2)cc1 |  |  | 54 |  |
| COc1ccc(-c2nc(C(=O)N3CCN(C)CC3)sc2-c2ccc(OC)cc2)cc1 [FR-122047] | 0.028 | 65 |  |  |
| O=C(Nc1ccc(C(F)(F)F)cc1)c1ccccc1[N+](=O)[O-] |  |  | 31 |  |
| COc1ccc2c(c1)c(CC(=O)O)c(C)n2C(=O)c1ccc(Cl)cc1 [INDOMETHACIN] |  |  |  | Activity (Rattus norvegicus [11]): Active; Activity (Mus musculus [8]): Active |
| Nc1ccc(C(=O)Nc2ccc(Cl)cc2)cc1 |  |  | 53 |  |
| Nc1ccc(C(=O)Nc2ccc(C(F)(F)F)cc2)cc1 | 30 | > 100 | 71 |  |
| Nc1ccc(C(=O)Nc2ccccc2C(F)(F)F)cc1 | > 100 | > 100 |  |  |
| Cc1ccc(NC(=O)c2ccc(N)cc2)cc1 |  |  | 56 |  |
| Nc1ccccc1C(=O)Nc1ccc(C(F)(F)F)cc1 | 16 | > 100 | 68 |  |

Reference: ChEMBL document CHEMBL1144769 (J Med Chem, 2008)
